Measurements taken from ChEMBL document CHEMBL5029168, “Discovery of novel ID2 antagonists from pharmacophore-based virtual screening as potential therapeutics for glioma” (Bioorg Med Chem, 2021).
Active and inactive are the calls of the source. The calls are words filed in the database; no cut-off is given here.

What was measured:
U-87 MG [1] = assay: Induction of apoptosis in human U87 cells assessed as viable cells at 50 uM measured after 24 hrs by annexin V-FITC/propidium iodide staining based flow cytometry analysis (reference value: 89.6%); format: functional, U-87MG ATCC; settings: read-out: Activity
U-87 MG [2] = assay: Antiinvasive activity against human U87 cells assessed as inhibition of cell invasion measured after 24 hrs by crystal violet staining based inverted microscopic analysis; format: functional; settings: U-87MG ATCC
U-87 MG [3] = assay: Induction of apoptosis in human U87 cells assessed as viable cells at 25 uM measured after 24 hrs by annexin V-FITC/propidium iodide staining based flow cytometry analysis (reference value: 89.6%); format: functional, U-87MG ATCC; settings: read-out: Activity
[4] = Antitumor activity against human U87 cells xenografted in NCG mouse assessed as reduction in tumor weight at 2.5 mg/kg, ip administered every other day for 5 days and measured after 12 days relative to control; format: functional, U-87MG ATCC; set-up: scale not given: the % may be the effect or the level left; settings: time 12 day
U87 [5] = assay: Inhibition of ID2/KDR signalling in human U87 cells assessed as decrease in VEGFA protein level measured after 24 hrs by western blot analysis; format: cell-based; settings: filed as antagonist
GL261 [6] = assay: Antiinvasive activity against mouse GL261 cells assessed as inhibition of cell invasion measured after 24 hrs by crystal violet staining based inverted microscopic analysis; format: functional
U-87 MG [7] = assay: Induction of apoptosis in human U87 cells assessed as late apoptotic cells at 50 uM measured after 24 hrs by annexin V-FITC/propidium iodide staining based flow cytometry analysis (reference value: 2.56%); format: functional, U-87MG ATCC
[8] = Toxicity in NCG mouse […] with human U87 cells assessed as kidney damage at 2.5 mg/kg, ip administered every other day for 5 days and measured after 7 days post first dose by H and E staining based assay; format: organism-based; settings: in vivo, 168 h, time 7 day
GL261 [9] = assay: Induction of apoptosis in mouse GL261 cells assessed as dead cells at 50 uM measured after 24 hrs by annexin V-FITC/propidium iodide staining based flow cytometry analysis (reference value: 1.22%); format: functional
GL261 [10] = assay: Induction of apoptosis in mouse GL261 cells assessed as early apoptotic cells at 25 uM measured after 24 hrs by annexin V-FITC/propidium iodide staining based flow cytometry analysis (reference value: 1.67%); format: functional
GL261 [11] = assay: Antimigratory activity against mouse GL261 cells assessed as reduction in wound closure at 12.5 uM measured up to 24 hrs by scratch wound healing assay (Rvb =63.3+/-0.78%); format: functional; set-up: scale not given: the % may be the effect or the level left; settings: time hrs <=24
NIH3T3 = assay: Cytotoxicity against mouse 3T3 cells assessed as reduction in cell viability at up to 100 nM incubated for 24 hrs by CCK8 assay; format: cell-based; settings: nih3t3, 24 h
U87 [12] = assay: Inhibition of ID2/KDR signalling in human U87 cells assessed as reduction in ID2 mRNA expression at 12.5 to 50 uM measured after 24 hrs by qRT-PCR analysis; format: cell-based; settings: filed as antagonist, dose 12.5-50 µM
GL261 [13] = assay: Induction of apoptosis in mouse GL261 cells assessed as viable cells at 25 uM measured after 24 hrs by annexin V-FITC/propidium iodide staining based flow cytometry analysis (reference value: 96.1%); format: functional; settings: read-out: Activity
U-87 MG [14] = assay: Induction of apoptosis in human U87 cells assessed as dead cells at 25 uM measured after 24 hrs by annexin V-FITC/propidium iodide staining based flow cytometry analysis (Rvb =3.52 %); format: functional, U-87MG ATCC
GL261 [15] = assay: Induction of apoptosis in mouse GL261 cells assessed as viable cells at 50 uM measured after 24 hrs by annexin V-FITC/propidium iodide staining based flow cytometry analysis (reference value: 96.1%); format: functional; settings: read-out: Activity
Homo sapiens [16] = species: Homo sapiens; assay: Binding affinity to CM5 sensor chip immobilized human ID2 assessed as maximum response by SPR analysis; settings: filed as antagonist
U87 [17] = assay: Inhibition of ID2/KDR signalling in human U87 cells assessed as reduction in KDR mRNA expression at 12.5 to 50 uM measured after 24 hrs by qRT-PCR analysis; format: cell-based; settings: filed as antagonist, dose 12.5-50 µM
Homo sapiens [18] = species: Homo sapiens; assay: Binding affinity to CM5 sensor chip immobilized human ID2 assessed as association constant by SPR analysis; settings: filed as antagonist
U-87MG ATCC [19] = assay: Antitumor activity against human U87 cells xenografted in NCG mouse assessed as reduction in Ki67 expression in tumor at 2.5 mg/kg, ip administered every other day for 5 days and measured after 7 days post first dose by immunohistochemical analysis; format: functional, organism-based; settings: time 7.0 day
U87 [20] = assay: Inhibition of ID2/KDR signalling in human U87 cells assessed as decrease in ID2 protein level measured after 24 hrs by western blot analysis; format: cell-based; settings: filed as antagonist
U-87 MG [21] = assay: Induction of apoptosis in human U87 cells assessed as early apoptotic cells at 25 uM measured after 24 hrs by annexin V-FITC/propidium iodide staining based flow cytometry analysis (reference value: 4.35%); format: functional, U-87MG ATCC
U87 [22] = assay: Inhibition of ID2/KDR signalling in human U87 cells assessed as increase in PTEN expression at 12.5 to 50 uM measured after 24 hrs by western blot analysis; format: cell-based; settings: filed as antagonist, dose 12.5-50 µM
U-87 MG [23] = assay: Induction of apoptosis in human U87 cells assessed as dead cells at 50 uM measured after 24 hrs by annexin V-FITC/propidium iodide staining based flow cytometry analysis (Rvb =3.52 %); format: functional, U-87MG ATCC
[24] = Binding affinity to CM5 sensor chip immobilized human ID2 assessed as dissociation constant by SPR analysis
Hs 683 = assay: Cytotoxicity against human Hs 683 cells assessed as reduction in cell viability incubated for 24 hrs by CCK8 assay; format: functional, cell-based; settings: Hs 683, 24 h
U87 [25] = assay: Inhibition of ID2/KDR signalling in human U87 cells assessed as decrease in KDR protein level measured after 24 hrs by western blot analysis; format: cell-based; settings: filed as antagonist
[26] = Toxicity in NCG mouse xenografted with human U87 cells assessed as heart damage at 2.5 mg/kg, ip administered every other day for 5 days and measured after 7 days post first dose by H and E staining based assay; format: organism-based; settings: in vivo, 168 h, time 7 day
U-87 MG [27] = assay: Antimigratory activity against human U87 cells assessed as inhibition of cell migration measured after 24 hrs by crystal violet staining based inverted microscopic analysis; format: functional; settings: U-87MG ATCC
[28] = Toxicity in NCG mouse […] with human U87 cells assessed as liver damage at 2.5 mg/kg, ip administered every other day for 5 days and measured after 7 days post first dose by H and E staining based assay; format: organism-based; settings: in vivo, 168 h, time 7 day
GL261 [29] = assay: Antimigratory activity against mouse GL261 cells assessed as inhibition of cell migration measured after 24 hrs by crystal violet staining based inverted microscopic analysis; format: functional
U-87 MG [30] = assay: Induction of apoptosis in human U87 cells assessed as late apoptotic cells at 25 uM measured after 24 hrs by annexin V-FITC/propidium iodide staining based flow cytometry analysis (reference value: 2.56%); format: functional, U-87MG ATCC
GL261 [31] = assay: Induction of apoptosis in mouse GL261 cells assessed as late apoptotic cells at 25 uM measured after 24 hrs by annexin V-FITC/propidium iodide staining based flow cytometry analysis (reference value: 1.01%); format: functional
U-87MG ATCC [32] = assay: Antitumor activity against human U87 cells xenografted in NCG mouse assessed as reduction in CD31 marker expression in tumor at 2.5 mg/kg, ip administered every other day for 5 days and measured after 7 days post first dose by immunohistochemical analysis; format: functional, organism-based; settings: time 7.0 day
[33] = Toxicity in NCG mouse […] with human U87 cells assessed as lung damage at 2.5 mg/kg, ip administered every other day for 5 days and measured after 7 days post first dose by H and E staining based assay; format: organism-based; settings: in vivo, 168 h, time 7 day

Compound: O=C(C[C@@]1(O)C(=O)N(Cc2cccc(Cl)c2)c2ccccc21)c1ccccn1
- viability at 50 µM (U-87 MG [1]): 2.61%
- Activity (U-87 MG [2]): Dose-Dependent Effect
- viability at 25 µM (U-87 MG [3]): 8.04%
- Activity [4]: 57.8%
- inhibition (U87 [5]): Dose-Dependent Effect
- Activity (GL261 [6]): Dose-Dependent Effect
- Activity (U-87 MG [7]): 68.8%
- Activity [8]: Non-Toxic
- Activity (GL261 [9]): 11%
- Activity (GL261 [10]): 8.24%
- Activity (GL261 [11]): 13.11%
- Activity (NIH3T3): Non-Toxic
- inhibition (U87 [12]): Active
- viability at 25 µM (GL261 [13]): 70.2%
- Activity (U-87 MG [14]): 2.72%
- viability at 50 µM (GL261 [15]): 6.58%
- Rmax (Homo sapiens [16]): 83.6 RU
- inhibition (U87 [17]): Active
- Ka (Homo sapiens [18]): 24.8 M⁻¹ s⁻¹
- Activity (U-87MG ATCC [19]): Active
- inhibition (U87 [20]): Dose-Dependent Effect
- Activity (U-87 MG [21]): 45.4%
- inhibition (U87 [22]): Active
- Activity (U-87 MG [23]): 1.29%
- Kd [24]: 129 nM
- IC50 (Hs 683): 34.2 µM
- inhibition (U87 [25]): Dose-Dependent Effect
- Activity [26]: Non-Toxic
- Activity (U-87 MG [27]): Dose-Dependent Effect
- Activity [28]: Non-Toxic
- Activity (GL261 [29]): Dose-Dependent Effect
- Activity (U-87 MG [30]): 43.9%
- Activity (GL261 [31]): 16%
- Activity (U-87MG ATCC [32]): Active
- Activity [33]: Non-Toxic
